Columns and labels:
[1] = Cell viability in MCF7 cells, compounds at 1 μM for 3 days; type: cell-based; conditions: human, 1 μM concentration, read-out: cellular viability
Procedure: We began our biological investigations by assaying the cytotoxicity of natural deoxyelephantopin (DEP) and its unnatural analogues in four different cancer cell lines (Fig. 5a, Supplementary Figs 6–8).
Supplementary figure 8: Cell viability measurements in MCF7 cells. All compounds were tested at 1 μM concentration for 3 days (values±SD are shown; n = 3).
Supplementary figure 9: Propidium iodide and DAPI staining of MCF7 cells treated with either DMSO, 10% ethanol (necrosis positive control) or 20 µM DEP for 8 h. Scale bar […]
Biological materials. All materials were purchased from Sigma Aldrich unless otherwise stated. DMEM/High glucose media, phosphate buffered saline (PBS), MEM Non-Essential Amino Acids, Penicillin-Streptomycin (Pen/Strep) and Trypsin-EDTA were obtained from Life Technologies. Protein concentration was determined using the Bradford assay (Bio-Rad).
Cell culture and preparation of lysates. […] Cells were lysed by sonication to form cell lysates and protein concentration was determined using the Bradford […]
’ cells/mL and HeLa: 1 ’ cells/mL) in a 96-well plate and allowed to attach overnight. […] Cells were imaged using a SpectraMax i3 plate reader equipped with a SpectraMax MiniMax imaging cytometer (Molecular Devices). […]
Caspase activity labeling for fluorescence cell imaging. […]

[2] = target: T1, Zinc finger protein 346 (ZNF346) (Homo sapiens, UniProt Q9UL40); test: SILAC competitive profiling with probe 24c in MCF7 lysates: ZNF346; type: binding; conditions: 1 h, then 10 µM 24c
T1 construct: 1,522 proteins were enriched from MCF7 cells by 10 μM probe 24c; endogenous in cells; host or cells: MCF7
Text: In our efforts to determine the direct molecular targets of deoxyelephantopin we first performed a gel-based competitive in situ proteomic profiling assay[41] […] While the greater conformational flexibility of probe 24c could potentially lead to more promiscuous target engagement relatively to deoxyelephantopin, it was favoured based on the fact that an alkyne moiety appended to the rigid scaffold of deoxyelephantopin may hinder some of its interactions. MCF7 cells were pretreated with various concentrations of deoxyelephantopin for 4 h, harvested, lysed and the lysates were treated with the fluorogenic probe 24c-Cy3 (10 μM; Supplementary Fig. 10). […] Furthermore, cells were pretreated with 20 μM concentration of deoxyelephantopin or 24c and the proteomic profiles were compared (Fig. 6b, Supplementary Fig. 11). Multiple bands were detected that were equally competed by both DEP and 24c, thus again confirming that 24c can be used as an acceptable clickable analogue of deoxyelephantopin in pulldown assays. Having established the optimal labelling conditions by SDS–PAGE, we next carried out a mass spectrometry-based competitive profiling assay[42] coupled with the method of stable isotope labelling of amino acids in culture (SILAC)[43]. […]
visualization were performed as described above. Images were quantified with ImageJ and kinetics values were calculated using GraphPad Prism (V6.03). […]

[3] = test system: several human cancer cell lines; conditions: cited from earlier work

T1 sequence (Q9UL40 whole entry): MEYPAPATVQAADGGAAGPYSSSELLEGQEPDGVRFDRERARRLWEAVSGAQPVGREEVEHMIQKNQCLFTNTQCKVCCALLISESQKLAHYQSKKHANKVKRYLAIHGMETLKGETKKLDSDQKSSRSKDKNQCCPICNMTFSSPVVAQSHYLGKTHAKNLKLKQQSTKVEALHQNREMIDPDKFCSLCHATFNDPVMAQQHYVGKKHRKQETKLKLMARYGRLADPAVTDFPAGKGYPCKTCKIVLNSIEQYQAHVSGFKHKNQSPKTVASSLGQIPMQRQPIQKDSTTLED

Question: Which viability at 3 days, 1 µM [1] does the source give for `C=C(C)C(=O)O[C@H]1CC2=C[C@@H](C/C(C)=C/[C@H]3OC(=O)C(=C)[C@H]13)OC2=O` [deoxyelephantopin] here?
Answer: < 30%

Question: What about the “SILAC ratio 20 µM Deoxyelephantopin/DMSO with 24c” value [2] of the same compound?
Answer: 0.22

Question: What about the cytotoxic doses [3] of the same compound?
Answer: 0.5 to 2 µg/mL
